Experimental data from patent US10329304B2, “Compounds and methods for inhibition of hedgehog signaling and phosphodiesterase” (Vanderbilt University, priority 2014, dated 2019).
Values joined by “and” are separate entries in the source; they are usually repeats but may differ in a detail not shown here. Equal entries are not always repeated. Where two headings read alike, the source gives them in different places.

Key:
PDE4D = PDE4D (Homo sapiens, UniProt Q08499); experiment: PDE4 inhibition assay (PDE4D IC50); assay type: biochemical; conditions: read-out: PDE4D IC50
Procedure, shortened: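 Duplicate 60 min room-temperature reactions hold 100 nM FAM-cAMP substrate, PDE4D enzyme and test compound at 1% final DMSO in pH7.4 Tris buffer. Product FAM-AMP captured by bead binding agent (60 min), with fluorescence read at excitation 485, emission 528 nm.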

Ptch1 transcription = experiment: Sufu−/− mouse embryonic fibroblasts qRT-PCR; assay type: cell-based; conditions: Mus musculus, Fibroblast; read-out: Sufu Null (Ptc) % Inh., 10 μM
RWGT2 = experiment: Cell viability assay (CellTiter-Blue, 72 hr); assay type: cell-based, Human
Procedure, shortened: (§1)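 Read-out is absorbance at 590 nm, compared against DMSO-only wells. Before this, cancer cells seeded sparsely at 10,000 per well received varying concentrations of compound.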

RKO = experiment: Cell viability assay (CellTiter-Blue, 72 hr); assay type: cell-based, Human; conditions: for EC50: RKO, human cancer cells, read-out: CELL KILLING EC50 (μM) Colon RKO
Procedure, shortened: as §1

MDA-MB- 231 = experiment: Cell viability assay (CellTiter-Blue, 72 hr); assay type: cell-based, Human
Procedure, shortened: as §1

[1] = human cancer cells, read-out: CELL KILLING EC50 (μM) Lung Squam, NSCLC RWGT2
[2] = MDA-MB-231, human cancer cells, read-out: CELL KILLING EC50 (μM) Breast MDA-231

IC50 (PDE4D) | SMILES | inhibition at 10 µM (Ptch1 transcription) [%] | EC50 (RWGT2; [1]) [µM] | EC50 (RKO) [µM] | EC50 (MDA-MB- 231; [2]) [µM] | further results
 | CCCn1c(SCC(=O)c2cccs2)nc2sc3c(c2c1=O)CCCC3 [Formula 9e] |  |  |  |  | IC50 (PDE4D; mean ± SEM, normalized to DMSO): 486 ± 1 nM
 | C=C(C)Cn1c(SCC(=O)c2ccccc2)nc2sc3c(c2c1=O)CCCC3 [JEH-3-045-1] | 47.6 |  |  |  | 
 | C=C(C)Cn1c(SCC(=O)c2ccccc2)nc2sc3c(c2c1=O)CCCC3 [Formula 9g] |  |  |  |  | IC50 (PDE4D; mean ± SEM, normalized to DMSO): 965 ± 100 nM
16000 nM | C=C(C)Cn1c(SCC(=O)c2ccncc2)nc2sc3c(c2c1=O)CCCC3 [JEH-3-048-1] |  | 40.2 | 52.9 | 6.82 | 
 | O=C(CSc1nc2sc3c(c2c(=O)n1C1CC1)CCCC3)c1cccs1 [JEH-3-039-2] | 80.4 |  |  |  | 
 | C=C(C)Cn1c(SCC(=O)c2cccs2)nc2sc3c(c2c1=O)CCCC3 [EGM, Eggmanone] | 65.6 | 6.87 | 54.3 | 2.05 | 
 | C=C(C)Cn1c(SCC(=O)c2nccs2)nc2sc3c(c2c1=O)CCCC3 [JEH-3-069-1] |  | 27.6 | 38.3 | 14 | 
4900 nM | C=C(C)Cn1c(SCC(=O)c2ccccn2)nc2sc3c(c2c1=O)CCCC3 [JEH-3-063] |  | 23.7 | 7.18 | 4.46 | 
 | C=CCn1c(SCC(=O)c2cccs2)nc2sc3c(c2c1=O)CCCC3 [JEH-3-039-3] | 38.1 | 5.07 | 306 | 1.74 | 

SMILES | IC50 (PDE4D) | inhibition at 10 µM (Ptch1 transcription) [%] | EC50 (RWGT2; [1]) [µM] | EC50 (RKO) [µM] | EC50 (MDA-MB- 231; [2]) [µM] | further results
C=C(C)Cn1c(SCC(=O)c2cccs2)nc2sc3c(c2c1=O)CCCC3 [Eggmanone, 3-(2-methylallyl)-2-((2-oxo-2-(thiophen-2-yl)ethyl)thio)-5,6,7,8-tetrahydrobenzo[4,5]thieno[2,3-d]pyrimidine-4(3H)-one] | 890 nM and 893 nM |  |  |  |  | EC50 (RWGT2; 72 h, read-out: EC50 (50% reduction of viable cell count at 72 hours), RWGT2, Human Lung Carcinoma): 6.87 µM; Effect on RKO colon cancer cell line (RKO): significantly inhibited; EC50 (MDA-MB- 231; 72 h, read-out: EC50 (50% reduction of viable cell count at 72 hours), MDA-MB- 231, Human Breast Adenocarcinoma): 2.05 µM
